Measurements taken from ChEMBL document CHEMBL2311510, “A new single-photon emission computed tomography (SPECT) imaging agent for serotonin transporters: [(125)I]Flip-IDAM, (2-((2-((dimethylamino)methyl)-4-iodophenyl)thio)phenyl)methanol” (Bioorg Med Chem Lett, 2013).

Columns and labels:
Bone [1] = test: Biodistribution in Sprague-Dawley rat bone assessed as compound level per organ at 11 uCi, iv measured 2 mins post compound dose; format: ADME, organism-based, Bone element; settings: in vivo
Liver = test: Biodistribution in Sprague-Dawley rat liver assessed as compound level per organ at 11 uCi, iv measured 2 mins post compound dose; format: ADME, organism-based; settings: in vivo
Lung [2] = test: Biodistribution in Sprague-Dawley rat lung assessed as compound level per organ at 11 uCi, iv measured 2 mins post compound dose; format: ADME, organism-based; settings: in vivo
Nucleic Acid [3] = test: Ratio of drug level in hypothalamus to cerebellum in Sprague-Dawley rat at 11 uCi, iv measured 120 mins post compound dose; format: ADME, organism-based; settings: in vivo, 2 h
Nucleic Acid [4] = test: Ratio of drug level in cortex to cerebellum in Sprague-Dawley rat at 11 uCi, iv measured 120 mins post compound dose; format: ADME, organism-based; settings: in vivo, 2 h
Nucleic Acid [5] = test: Ratio of drug level in hippocampus to cerebellum in Sprague-Dawley rat at 11 uCi, iv measured 120 mins post compound dose; format: ADME, organism-based; settings: in vivo, 2 h
Nucleic Acid [6] = test: Ratio of drug level in hypothalamus to cerebellum in Sprague-Dawley rat at 11 uCi, iv measured 30 mins post compound dose; format: ADME, organism-based; settings: in vivo, 0.5 h
Nucleic Acid [7] = test: Ratio of drug level in rest of brain region to cerebellum in Sprague-Dawley rat at 11 uCi, iv measured 30 mins post compound dose; format: ADME, organism-based; settings: in vivo, 0.5 h
Nucleic Acid [8] = test: Ratio of drug level in hypothalamus to cerebellum in Sprague-Dawley rat at 11 uCi, iv measured 2 mins post compound dose; format: ADME, organism-based; settings: in vivo
Hypothalamus = test: Biodistribution in Sprague-Dawley rat hypothalamus at 11 uCi, iv measured 120 mins post compound dose; format: ADME, organism-based; settings: in vivo, 2 h
Cortex [9] = test: Biodistribution in Sprague-Dawley rat cortex at 11 uCi, iv measured 120 mins post compound dose; format: ADME, organism-based; settings: in vivo, 2 h
Hippocampus [10] = test: Biodistribution in Sprague-Dawley rat hippocampus at 11 uCi, iv measured 60 mins post compound dose; format: ADME, organism-based; settings: in vivo, 1 h
Brain [11] = test: Biodistribution in Sprague-Dawley rat rest of brain at 11 uCi, iv measured 30 mins post compound dose; format: ADME, organism-based; settings: in vivo, 0.5 h
Cortex [12] = test: Biodistribution in Sprague-Dawley rat cortex at 11 uCi, iv measured 30 mins post compound dose; format: ADME, organism-based; settings: in vivo, 0.5 h
Hippocampus [13] = test: Biodistribution in Sprague-Dawley rat hippocampus at 11 uCi, iv measured 30 mins post compound dose; format: ADME, organism-based; settings: in vivo, 0.5 h
Striatum [14] = test: Biodistribution in Sprague-Dawley rat striatum at 11 uCi, iv measured 30 mins post compound dose; format: ADME, organism-based; settings: in vivo, 0.5 h
Cerebellum = test: Biodistribution in Sprague-Dawley rat cerebellum at 11 uCi, iv measured 30 mins post compound dose; format: ADME, organism-based; settings: in vivo, 0.5 h
Brain [15] = test: Biodistribution in Sprague-Dawley rat rest of brain at 11 uCi, iv measured 2 mins post compound dose; format: ADME, organism-based; settings: in vivo
Hippocampus [16] = test: Biodistribution in Sprague-Dawley rat hippocampus at 11 uCi, iv measured 2 mins post compound dose; format: ADME, organism-based; settings: in vivo
Striatum [17] = test: Biodistribution in Sprague-Dawley rat striatum at 11 uCi, iv measured 2 mins post compound dose; format: ADME, organism-based; settings: in vivo
Spleen [18] = test: Biodistribution in Sprague-Dawley rat spleen at 11 uCi, iv measured 120 mins post compound dose; format: ADME, organism-based; settings: in vivo, 2 h
Kidney [19] = test: Biodistribution in Sprague-Dawley rat kidney at 11 uCi, iv measured 120 mins post compound dose; format: ADME, organism-based; settings: in vivo, 2 h
Lung [20] = test: Biodistribution in Sprague-Dawley rat lung at 11 uCi, iv measured 120 mins post compound dose; format: ADME, organism-based; settings: in vivo, 2 h
Brain [21] = test: Biodistribution in Sprague-Dawley rat brain at 11 uCi, iv measured 60 mins post compound dose; format: ADME, organism-based; settings: in vivo, 1 h
Zone of skin [22] = test: Biodistribution in Sprague-Dawley rat skin at 11 uCi, iv measured 60 mins post compound dose; format: ADME, organism-based; settings: in vivo, 1 h
Heart [23] = test: Biodistribution in Sprague-Dawley rat heart assessed as compound level per organ at 11 uCi, iv measured 2 mins post compound dose; format: ADME, organism-based; settings: in vivo
Spleen [24] = test: Biodistribution in Sprague-Dawley rat spleen at 11 uCi, iv measured 60 mins post compound dose; format: ADME, organism-based; settings: in vivo, 1 h
Pancreas [25] = test: Biodistribution in Sprague-Dawley rat pancreas at 11 uCi, iv measured 60 mins post compound dose; format: ADME, organism-based; settings: in vivo, 1 h
Lung [26] = test: Biodistribution in Sprague-Dawley rat lung at 11 uCi, iv measured 60 mins post compound dose; format: ADME, organism-based; settings: in vivo, 1 h
Muscle tissue [27] = test: Biodistribution in Sprague-Dawley rat muscle at 11 uCi, iv measured 60 mins post compound dose; format: ADME, organism-based; settings: in vivo, 1 h
Heart [28] = test: Biodistribution in Sprague-Dawley rat heart at 11 uCi, iv measured 60 mins post compound dose; format: ADME, organism-based; settings: in vivo, 1 h
Bone [29] = test: Biodistribution in Sprague-Dawley rat bone at 11 uCi, iv measured 30 mins post compound dose; format: ADME, organism-based, Bone element; settings: in vivo, 0.5 h
Brain [30] = test: Biodistribution in Sprague-Dawley rat brain at 11 uCi, iv measured 30 mins post compound dose; format: ADME, organism-based; settings: in vivo, 0.5 h
Spleen [31] = test: Biodistribution in Sprague-Dawley rat spleen at 11 uCi, iv measured 30 mins post compound dose; format: ADME, organism-based; settings: in vivo, 0.5 h
Heart [32] = test: Biodistribution in Sprague-Dawley rat heart at 11 uCi, iv measured 2 mins post compound dose; format: ADME, organism-based; settings: in vivo
Bone [33] = test: Biodistribution in Sprague-Dawley rat bone assessed as compound level per organ at 11 uCi, iv measured 120 mins post compound dose; format: ADME, organism-based, Bone element; settings: in vivo, 2 h
Brain [34] = test: Biodistribution in Sprague-Dawley rat brain assessed as compound level per organ at 11 uCi, iv measured 120 mins post compound dose; format: ADME, organism-based; settings: in vivo, 2 h
Zone of skin [35] = test: Biodistribution in Sprague-Dawley rat skin assessed as compound level per organ at 11 uCi, iv measured 120 mins post compound dose; format: ADME, organism-based; settings: in vivo, 2 h
Kidney [36] = test: Biodistribution in Sprague-Dawley rat kidney assessed as compound level per organ at 11 uCi, iv measured 120 mins post compound dose; format: ADME, organism-based; settings: in vivo, 2 h
Lung [37] = test: Biodistribution in Sprague-Dawley rat lung assessed as compound level per organ at 11 uCi, iv measured 120 mins post compound dose; format: ADME, organism-based; settings: in vivo, 2 h
Muscle tissue [38] = test: Biodistribution in Sprague-Dawley rat muscle assessed as compound level per organ at 11 uCi, iv measured 120 mins post compound dose; format: ADME, organism-based; settings: in vivo, 2 h
Bone [39] = test: Biodistribution in Sprague-Dawley rat bone assessed as compound level per organ at 11 uCi, iv measured 60 mins post compound dose; format: ADME, organism-based, Bone element; settings: in vivo, 1 h
Zone of skin [40] = test: Biodistribution in Sprague-Dawley rat skin assessed as compound level per organ at 11 uCi, iv measured 60 mins post compound dose; format: ADME, organism-based; settings: in vivo, 1 h
Pancreas [41] = test: Biodistribution in Sprague-Dawley rat pancreas assessed as compound level per organ at 11 uCi, iv measured 60 mins post compound dose; format: ADME, organism-based; settings: in vivo, 1 h
Kidney [42] = test: Biodistribution in Sprague-Dawley rat kidney assessed as compound level per organ at 11 uCi, iv measured 60 mins post compound dose; format: ADME, organism-based; settings: in vivo, 1 h
Brain [43] = test: Biodistribution in Sprague-Dawley rat brain assessed as compound level per organ at 11 uCi, iv measured 30 mins post compound dose; format: ADME, organism-based; settings: in vivo, 0.5 h
Bone [44] = test: Biodistribution in Sprague-Dawley rat bone assessed as compound level per organ at 11 uCi, iv measured 30 mins post compound dose; format: ADME, organism-based, Bone element; settings: in vivo, 0.5 h
Zone of skin [45] = test: Biodistribution in Sprague-Dawley rat skin assessed as compound level per organ at 11 uCi, iv measured 30 mins post compound dose; format: ADME, organism-based; settings: in vivo, 0.5 h
Spleen [46] = test: Biodistribution in Sprague-Dawley rat spleen assessed as compound level per organ at 11 uCi, iv measured 30 mins post compound dose; format: ADME, organism-based; settings: in vivo, 0.5 h
Lung [47] = test: Biodistribution in Sprague-Dawley rat lung assessed as compound level per organ at 11 uCi, iv measured 30 mins post compound dose; format: ADME, organism-based; settings: in vivo, 0.5 h
Heart [48] = test: Biodistribution in Sprague-Dawley rat heart assessed as compound level per organ at 11 uCi, iv measured 30 mins post compound dose; format: ADME, organism-based; settings: in vivo, 0.5 h

Drug uptake (Bone [1]): 0.03 %ID
Drug uptake (Liver): 9.42 %ID
Drug uptake (Lung [2]): 6.52 %ID
Ratio (Nucleic Acid [3]): 1.93
Ratio (Nucleic Acid [4]): 1.24
Ratio (Nucleic Acid [5]): 1.5
Ratio (Nucleic Acid [6]): 4.01
Ratio (Nucleic Acid [7]): 2.22
Ratio (Nucleic Acid [8]): 1.02
Drug uptake (Hypothalamus): 0.1 % ID/g
Drug uptake (Cortex [9]): 0.06 % ID/g
Drug uptake (Hippocampus [10]): 0.21 % ID/g
Drug uptake (Brain [11]): 0.55 % ID/g
Drug uptake (Cortex [12]): 0.21 % ID/g
Drug uptake (Hippocampus [13]): 0.66 % ID/g
Drug uptake (Striatum [14]): 0.78 % ID/g
Drug uptake (Cerebellum): 0.25 % ID/g
Drug uptake (Brain [15]): 1.14 % ID/g
Drug uptake (Hippocampus [16]): 1.28 % ID/g
Drug uptake (Striatum [17]): 1.28 % ID/g
Drug uptake (Spleen [18]): 0.12 % ID/g
Drug uptake (Kidney [19]): 0.57 % ID/g
Drug uptake (Lung [20]): 0.27 % ID/g
Drug uptake (Brain [21]): 0.14 % ID/g
Drug uptake (Zone of skin [22]): 0.2 % ID/g
Drug uptake (Heart [23]): 1.17 %ID
Drug uptake (Spleen [24]): 0.22 % ID/g
Drug uptake (Pancreas [25]): 0.28 % ID/g
Drug uptake (Lung [26]): 0.42 % ID/g
Drug uptake (Muscle tissue [27]): 0.13 % ID/g
Drug uptake (Heart [28]): 0.17 % ID/g
Drug uptake (Bone [29]): 0.4 % ID/g
Drug uptake (Brain [30]): 0.53 % ID/g
Drug uptake (Spleen [31]): 0.55 % ID/g
Drug uptake (Heart [32]): 1.46 % ID/g
Drug uptake (Bone [33]): 0.01 %ID
Drug uptake (Brain [34]): 0.13 %ID
Drug uptake (Zone of skin [35]): 4.07 %ID
Drug uptake (Kidney [36]): 1.06 %ID
Drug uptake (Lung [37]): 0.41 %ID
Drug uptake (Muscle tissue [38]): 5.45 %ID
Drug uptake (Bone [39]): 0.01 %ID
Drug uptake (Zone of skin [40]): 6.4 %ID
Drug uptake (Pancreas [41]): 0.1 %ID
Drug uptake (Kidney [42]): 1.44 %ID
Drug uptake (Brain [43]): 1.13 %ID
Drug uptake (Bone [44]): 0.02 %ID
Drug uptake (Zone of skin [45]): 9.38 %ID
Drug uptake (Spleen [46]): 0.23 %ID
Drug uptake (Lung [47]): 1.5 %ID
Drug uptake (Heart [48]): 0.28 %ID
Compound: CN(C)Cc1cc([125I])ccc1Sc1ccccc1CO
